From article PMC8041276 (ACS Chemical Neuroscience, 2021)
Like-named read-outs stand apart in the source and are kept apart here.

Tests used:
D2R = molecular target: T1, D2R (Homo sapiens, UniProt P14416); assay: [3H]-raclopride radioligand binding assay, HEK293 cells; details: mean of three experiments
T1 construct: expressed in transfected cells
Method: All experiments were carried out according to the previously published procedures.[41]−[43] HEK293 cells stably expressing human 5-HT1A, 5-HT6, 5-HT7b, and D2L receptors (prepared with the use of Lipofectamine 2000) or CHO-K1 cells with plasmid containing the sequence coding for the human serotonin 5-HT2A receptor (PerkinElmer) were maintained at 37 °C in a humidified atmosphere containing 5% CO2 and grown in Dulbecco’s modified Eagle’s medium containing 10% dialyzed fetal bovine serum and 500 μg/mL G418 sulfate. For membrane preparation, cells were cultured in 150 cm^2 flasks, grown to 90% confluence, washed twice with prewarmed to 37 °C phosphate buffered saline (PBS), and centrifuged (200g) in PBS containing 0.1 mM EDTA and 1 mM dithiothreitol. Prior to membrane preparation, pellets were stored at −80 °C. Cell pellets were thawed and homogenized in 10 volumes of assay buffer using an Ultra Turrax tissue homogenizer and centrifuged twice at 35 000g for 15 min at 4 °C, with incubation for 15 min at 37 °C between the centrifugations. The composition of the assay buffers was experimentally selected to achieve the maximum signal window (more details in Supporting Information). All assays were carried out in a total volume of 200 μL in 96-well plates for 1 h at 37 °C except 5-HT1AR and 5-HT2AR which were incubated at room temperature and 27 °C, respectively. The process of equilibration was terminated by rapid filtration through Unifilter plates with a 96-well cell harvester, and radioactivity retained on the filters was quantified on a Microbeta plate reader (PerkinElmer, USA). For displacement studies the assay samples contained the following as radioligands (PerkinElmer, USA): 2.5 nM [^3H]-8-OH-DPAT (135.2 Ci/mmol) for 5-HT1AR; 1 nM [^3H]-ketanserin (53.4 Ci/mmol) for 5-HT2AR; 2 nM [^3H]-LSD (83.6 Ci/mmol) for 5-HT6R; 0.8 nM [^3H]-5-CT (39.2 Ci/mmol) for 5-HT7R or 2.5 nM [^3H]-raclopride (76.0 Ci/mmol) for D2LR. Nonspecific binding was defined in the presence of 10 μM 5-HT in 5-HT1AR and 5-HT7R binding experiments, whereas 20 μM mianserin, 10 μM methiothepine, and 10 μM haloperidol were used in 5-HT2AR, 5-HT6R, and D2LR assays, respectively. Each compound was tested in triplicate at seven concentrations (10^–10–10^–4 M). The inhibition constants (Ki) were calculated from the Cheng–Prusoff equation.[44]

[1] = In vivo pharmacokinetic study, plasma and brain; set-up: species or system male Wistar rats; details: male, Wistar, po, rat; for AUC(0-t) / Cmax / MRT / Tmax / half-life: 10 mg/kg p.o.; for half-life: read-out: t0.5 (terminal half-life)
Method: Subsequently, the pharmacokinetic profile of 27 and 28 was assessed in male Wistar rats after single intragastric administration at the dose of 10 mg/kg. The studied compounds were rapidly absorbed and crossed the blood–brain barrier, reaching the Cmax in 5 min in both plasma and brain.
For LC–MS/MS analyses, an HPLC Nexera system (Shimadzu, Kyoto, Japan) combined with the triple quadrupole API 3200 mass spectrometer (SCIEX, Framingham, MA, USA) interfaced via an electrospray source and controlled by Analyst software version 1.5.2 (SCIEX, Framingham, MA, USA) was applied.
The chromatographic separation was performed on Acclaim Polar Advantage II (3.0 mm × 74 mm, 3 μm, 120A, Dionex, USA) analytical column using the mobile phase composed of eluent A, HPLC grade acetonitrile acidified with 0.1% (v/v) formic acid, and eluent B, HPLC grade water with 0.1% (v/v) formic acid. The elution gradient started with 90% of eluent B, increasing to 90% of eluent A over 5 min, returned to 90% of eluent B over 5 min, and maintained at 90% of eluent B for 5 min. The mobile phase flow rate was set at 400 μL/min. The injection volume was 20 μL, and the total time of analysis was 15 min. The temperatures of the column thermostat and the autosampler were set at 40 and 10 °C, respectively.
For increased sensitivity and selectivity, the MS/MS data acquisition was performed in the selected reaction monitoring (SRM) mode. The ions measured were m/z 585.1 (Q1) and m/z 516.2 (Q3) for compounds 27 and 28 and m/z 305 (Q1) and m/z 248 (Q3) for IS. The quantification was done via peak area ratio.
Protein precipitation with acetonitrile was used for purification of plasma and brain homogenates. The whole brain was homogenized using an electric tissue homogenizer in an appropriate amount of phosphate buffer (pH 7.4) in 1:2.5 ratio. Thereafter, a volume of 100 μL of plasma or brain homogenate was transferred to 2 mL Eppendorf tubes, and a 5 μL aliquot of the internal standard (IS, PH002437, Merck, Darmstadt, Germany) in working solution (5 μg/mL) was added and vortex-mixed for 10 s. Thereafter, 200 μL of acetonitrile was added and mixed for 20 min, followed by centrifugation (28 672g) for 10 min at 4 °C. The supernatant was transferred to chromatographic vials, and 20 μL was injected into the analytical column.
A group of 64 male, 8-week-old, Wistar strain outbred rats weighing between 200 and 220 g each were purchased from the Animal House at the Faculty of Pharmacy, Jagiellonian University Medical College, Krakow (Poland) and housed in standard polycarbonate cages, in groups of four animals per cage. Environmental conditions during the study were constant: relative humidity 50–60%, temperature 22 ± 2 °C, normal 12 h light–dark cycle (7 a.m. to 7 p.m. light). Standard rodent chow and water were available ad libitum. Compounds 27 and 28 were dissolved in saline and administered by intragastric gavage at a dose of 10 mg/kg, and the animals were sacrificed at specific time-points: 0 min, predose (n = 4), 5 min (n = 4), 15 min (n = 4), 30 min (n = 4), 60 min (n = 4), 120 min (n = 4), 240 min (n = 4), and 480 min (n = 4) after administration. Animals were deeply anaesthetized by ip injections of 50 mg/kg ketamine plus 8 mg/kg xylazine before sacrifice. First, the blood was collected into heparinized tubes, and the blood samples were centrifuged at 1000g for 10 min to obtain plasma. Following the animals’ euthanasia, the whole brain was collected. The plasma and brain samples were immediately frozen at −80 °C for future analysis. All experimental procedures were carried out in accordance with EU Directive 2010/63/EU and approved by the I Local Ethics Committee for Experiments on Animals of the Jagiellonian University in Krakow, Poland (No. 83/2018).

T1 sequence (P14416 whole entry): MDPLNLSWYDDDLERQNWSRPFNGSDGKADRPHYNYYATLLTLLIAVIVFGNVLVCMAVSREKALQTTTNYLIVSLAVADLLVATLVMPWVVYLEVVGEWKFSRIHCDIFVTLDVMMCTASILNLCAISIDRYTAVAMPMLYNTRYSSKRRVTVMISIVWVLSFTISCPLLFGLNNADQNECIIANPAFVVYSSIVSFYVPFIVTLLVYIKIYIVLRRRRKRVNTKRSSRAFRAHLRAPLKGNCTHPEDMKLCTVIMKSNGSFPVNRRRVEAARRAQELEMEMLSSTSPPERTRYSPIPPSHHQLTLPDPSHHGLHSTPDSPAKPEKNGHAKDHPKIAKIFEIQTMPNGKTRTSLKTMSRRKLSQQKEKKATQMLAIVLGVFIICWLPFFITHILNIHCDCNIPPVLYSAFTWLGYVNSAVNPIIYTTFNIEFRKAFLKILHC

SMILES	Ki (D2R) [µM]	Kp ([1]; brain/plasma, 10 mg/kg intragastric, read-out: brain/plasma ratio)	AUC(0-t) ([1]; brain) [ng·h/mL]	Cmax ([1]; brain) [ng/g]	MRT ([1]; brain) [h]	Tmax ([1]; brain) [min]	half-life ([1]; brain) [h]	AUC(0-t) ([1]; plasma) [ng·h/mL]	Cmax ([1]; plasma) [ng/mL]	MRT ([1]; plasma) [h]	Tmax ([1]; plasma) [min]	half-life ([1]; plasma) [h]
O=C(N[C@@H]1CCNC1)c1ccn(S(=O)(=O)c2cccc(Cl)c2)c1-c1ccc(F)cc1 [Compound 27, (R)-2-(4-Fluorophenyl)-1-[(3-chlorophenyl)sulfonyl]-N-(pyrrolidin-3-yl)-1H-pyrrole-3-carboxamide]	7.08	0.63	812	427	3.02	5	4.18	1290	1040	2.72	5	1.96
O=C(N[C@H]1CCNC1)c1ccn(S(=O)(=O)c2cccc(Cl)c2)c1-c1ccc(F)cc1 [Compound 28, (S)-2-(4-Fluorophenyl)-1-[(3-chlorophenyl)sulfonyl]-N-(pyrrolidin-3-yl)-1H-pyrrole-3-carboxamide]	7.34		289	51.7	4.43	5		3390	3500	3.35	5	4.95
